Measurements as given in US11000033B2, “Ketone or oxime compound, and herbicide” (NISSAN CHEMICAL CORPORATION, priority 2014, dated 2021).

What was measured:
Type in all cases: in vivo
Veronica persica [1] = assay: Test Example 5: herbicidal effect by foliage application, plastic box (symbol R); settings: 320 g/ha, 3 weeks after application
Outline: (§1)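 Post-emergence spray; diluvial soil (sterilized), ~1.5 cm seed cover; greenhouse 25–30° C; 14-day-old plants; water-diluted emulsion at predetermined dose; visual score at 3 wk post-treatment.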

Scirpus juncoides = assay: Test Example 2: herbicidal activity, application during weed generation in submerged conditions (symbol B); settings: Table 23; application herbicide amount 320 g/ha; grade 0-5 by criteria of Test Example 1
Outline: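 Compound was applied as a water-diluted emulsion into the standing water of flooded pots (4 cm) once co-sown weeds reached one to two leaves. Greenhouse temperature was 25° C. to 30° C., soil was alluvial, and each species was rated visually after 3 weeks.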

Alopecurus myosuroides [2] = assay: Test Example 4: herbicidal effect by soil treatment (symbol J)
Outline: (§2)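 Seeds were sown in sterilized diluvial soil, covered with about 1.5 cm of soil, and the soil surface was sprayed with a water-diluted emulsion of the compound at a predetermined rate. Plants grew in a greenhouse at 25° C. to 30° C.; effects were scored visually 3 weeks after application.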

rapeseed = assay: Test Example 4: effect on crop by soil treatment (symbol g); settings: for g: rapeseed, effect on crop grade: application herbicide amount 320 g/ha; for g: rapeseed, effect grade on crop: 320 g/ha
Outline: (§3)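 Plants grew in a 25° C. to 30° C. greenhouse after spot-sowing of seeds, including beet, rapeseed, wheat and rice, into sterilized diluvial soil under roughly 1.5 cm of cover soil.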

Galium spurium = assay: Test Example 4: herbicidal effect by soil treatment (symbol Q)
Outline: as §2

wheat = assay: Test Example 5: effect on crop by foliage application, plastic box (symbol e); settings: 320 g/ha, 3 weeks after application
Outline: (§4)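 Foliage-application test plants come from spot sowing in sterilized diluvial soil under a soil layer of about 1.5 cm, grown at 25° C. to 30° C. in a greenhouse.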

corn [3] = assay: Test Example 5: effect on crop by foliage application, plastic box (symbol c); settings: 320 g/ha, 3 weeks after application
Outline: as §4

beet = assay: Test Example 5: effect on crop by foliage application, plastic box (symbol f); settings: 320 g/ha, 3 weeks after application
Outline: as §4

Alopecurus myosuroides [4] = assay: Test Example 5: herbicidal effect by foliage application, plastic box (symbol J); settings: 320 g/ha, 3 weeks after application
Outline: as §1

rice = assay: Test Example 4: effect on crop by soil treatment (symbol b); settings: for b: directly sowed rice plant, effect on crop grade: application herbicide amount 320 g/ha; for b: directly sowed rice plant, effect grade on crop: 320 g/ha
Outline: as §3

Digitaria ciliaris = assay: Test Example 4: herbicidal effect by soil treatment (symbol F)
Outline: as §2

Veronica persica [5] = assay: Test Example 4: herbicidal effect by soil treatment (symbol R)
Outline: as §2

transplanted rice plant = assay: Test Example 1: effect on crop, application before weed generation in submerged conditions (symbol a); settings: application herbicide amount 320 g/ha
Outline: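 Rice at 2.5 leaf stage transplanted into submerged soil (4 cm depth) sown with three weed species; herbicide applied before weed emergence.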

Lolium multiflorum Lam. = assay: Test Example 5: herbicidal effect by foliage application, plastic box (symbol K); settings: 320 g/ha, 3 weeks after application
Outline: as §1

corn [6] = assay: Test Example 4: effect on crop by soil treatment (symbol c); settings: for c: corn, effect on crop grade: application herbicide amount 320 g/ha; for c: corn, effect grade on crop: 320 g/ha
Outline: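 Sterilized diluvial soil, spot sowing, ~1.5 cm soil cover; greenhouse 25–30° C.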

[7] = application herbicide amount 320 g/ha

| SMILES | R: Veronica persica, herbicidal effect grade (Veronica persica [1]) | Herbicidal effect grade, B: Scirpus juncoides (Scirpus juncoides) | J: Alopecurus myosuroides, herbicidal effect grade (Alopecurus myosuroides [2]; [7]) | g: rapeseed, effect on crop grade (rapeseed) | Q: Galium spurium, herbicidal effect grade (Galium spurium; [7]) | e: wheat, effect on crop grade (wheat) | Effect grade on crop, a: transplanted rice plant (transplanted rice plant) | R: Veronica persica, herbicidal effect (criteria 0-5) (Veronica persica [1]) | J: Alopecurus myosuroides, herbicidal effect grade (Alopecurus myosuroides [2]; 320 g/ha) | g: rapeseed, effect grade on crop (rapeseed) | Q: Galium spurium, herbicidal effect grade (Galium spurium; 320 g/ha) | e: wheat, effect on crop (criteria 0-5) (wheat) | c: corn, effect on crop (criteria 0-5) (corn [3]) | f: beet, effect on crop (criteria 0-5) (beet) | J: Alopecurus myosuroides, herbicidal effect (criteria 0-5) (Alopecurus myosuroides [4]) | b: directly sowed rice plant, effect grade on crop (rice) | F: Digitaria ciliaris, herbicidal effect grade (Digitaria ciliaris; 320 g/ha) | R: Veronica persica, herbicidal effect grade (Veronica persica [5]; 320 g/ha) | K: Lolium multiflorum Lam., herbicidal effect (criteria 0-5) (Lolium multiflorum Lam.) | c: corn, effect grade on crop (corn [6]) | further results |
| --- | --- | --- | --- | --- | --- | --- | --- | --- | --- | --- | --- | --- | --- | --- | --- | --- | --- | --- | --- | --- | --- |
| CCC(C)C(=O)CC1CC(O)=C(c2c(C)cc(C)cc2C)C1=O (stereo not drawn) [2-024] | 2 (Herbicidal ratio of 20% or higher and lower than 40%) | 0 (Herbicidal ratio of 5% or lower (almost no effect)) | 0 (Herbicidal ratio of 5% or lower (almost no effect)) | 0 (Herbicidal ratio of 5% or lower (almost no effect)) | 0 (Herbicidal ratio of 5% or lower (almost no effect)) | 0 (Herbicidal ratio of 5% or lower (almost no effect)) | 4 (Herbicidal ratio of 70% or higher and lower than 90%) |  |  |  |  |  |  |  |  |  |  |  |  |  | c: corn, effect on crop grade (corn [3]): 3 (Herbicidal ratio of 40% or higher and lower than 70%); f: beet, effect on crop grade (beet): 0 (Herbicidal ratio of 5% or lower (almost no effect)); J: Alopecurus myosuroides, herbicidal effect grade (Alopecurus myosuroides [4]): 4 (Herbicidal ratio of 70% or higher and lower than 90%); b: directly sowed rice plant, effect on crop grade (rice): 5 (Herbicidal ratio of 90% or more (almost completely withered)); F: Digitaria ciliaris, herbicidal effect grade (Digitaria ciliaris; [7]): 5 (Herbicidal ratio of 90% or more (almost completely withered)); R: Veronica persica, herbicidal effect grade (Veronica persica [5]; [7]): 0 (Herbicidal ratio of 5% or lower (almost no effect)); K: Lolium multiflorum Lam., herbicidal effect grade (Lolium multiflorum Lam.): 5 (Herbicidal ratio of 90% or more (almost completely withered)); c: corn, effect on crop grade (corn [6]): 0 (Herbicidal ratio of 5% or lower (almost no effect)) |
| CCC(=O)CC1CC(O)=C(c2c(C)cc(C)cc2C)C1=O (stereo not drawn) [2-006] | 0 (Herbicidal ratio of 5% or lower (almost no effect)) | 2 (Herbicidal ratio of 20% or higher and lower than 40%) | 5 (Herbicidal ratio of 90% or more (almost completely withered)) | 4 (Herbicidal ratio of 70% or higher and lower than 90%) | 0 (Herbicidal ratio of 5% or lower (almost no effect)) | 0 (Herbicidal ratio of 5% or lower (almost no effect)) | 3 (Herbicidal ratio of 40% or higher and lower than 70%) |  |  |  |  |  |  |  |  |  |  |  |  |  | c: corn, effect on crop grade (corn [3]): 0 (Herbicidal ratio of 5% or lower (almost no effect)); f: beet, effect on crop grade (beet): 0 (Herbicidal ratio of 5% or lower (almost no effect)); J: Alopecurus myosuroides, herbicidal effect grade (Alopecurus myosuroides [4]): 4 (Herbicidal ratio of 70% or higher and lower than 90%); b: directly sowed rice plant, effect on crop grade (rice): 5 (Herbicidal ratio of 90% or more (almost completely withered)); F: Digitaria ciliaris, herbicidal effect grade (Digitaria ciliaris; [7]): 5 (Herbicidal ratio of 90% or more (almost completely withered)); R: Veronica persica, herbicidal effect grade (Veronica persica [5]; [7]): 0 (Herbicidal ratio of 5% or lower (almost no effect)); K: Lolium multiflorum Lam., herbicidal effect grade (Lolium multiflorum Lam.): 5 (Herbicidal ratio of 90% or more (almost completely withered)); c: corn, effect on crop grade (corn [6]): 2 (Herbicidal ratio of 20% or higher and lower than 40%) |
| CON=C(C)CC1CC(OC(=O)N2CCN(C)CC2)=C(c2c(C)cc(C)cc2C)C1=O (stereo not drawn) [1-152] |  | 0 (Herbicidal ratio of 5% or lower (almost no effect)) |  |  |  |  | 2 (Herbicidal ratio of 20% or higher and lower than 40%) | 0 (Herbicidal ratio of 5% or lower (almost no effect)) | 3 (Herbicidal ratio of 40% or higher and lower than 70%) | 0 (Herbicidal ratio of 5% or lower (almost no effect)) | 0 (Herbicidal ratio of 5% or lower (almost no effect)) | 3 (Herbicidal ratio of 40% or higher and lower than 70%) | 2 (Herbicidal ratio of 20% or higher and lower than 40%) | 0 (Herbicidal ratio of 5% or lower (almost no effect)) | 5 (Herbicidal ratio of 90% or more (almost completely withered)) | 0 (Herbicidal ratio of 5% or lower (almost no effect)) | 0 (Herbicidal ratio of 5% or lower (almost no effect)) | 0 (Herbicidal ratio of 5% or lower (almost no effect)) | 5 (Herbicidal ratio of 90% or more (almost completely withered)) | 0 (Herbicidal ratio of 5% or lower (almost no effect)) |  |
| CON=C(C)CC1CC(OC(=O)N2CCCC2)=C(c2c(C)cc(C)cc2C)C1=O (stereo not drawn) [1-150] |  | 3 (Herbicidal ratio of 40% or higher and lower than 70%) |  |  |  |  | 5 (Herbicidal ratio of 90% or more (almost completely withered)) | 0 (Herbicidal ratio of 5% or lower (almost no effect)) | 5 (Herbicidal ratio of 90% or more (almost completely withered)) | 0 (Herbicidal ratio of 5% or lower (almost no effect)) | 0 (Herbicidal ratio of 5% or lower (almost no effect)) | 4 (Herbicidal ratio of 70% or higher and lower than 90%) | 4 (Herbicidal ratio of 70% or higher and lower than 90%) | 0 (Herbicidal ratio of 5% or lower (almost no effect)) | 5 (Herbicidal ratio of 90% or more (almost completely withered)) | 0 (Herbicidal ratio of 5% or lower (almost no effect)) | 5 (Herbicidal ratio of 90% or more (almost completely withered)) | 0 (Herbicidal ratio of 5% or lower (almost no effect)) | 5 (Herbicidal ratio of 90% or more (almost completely withered)) | 0 (Herbicidal ratio of 5% or lower (almost no effect)) |  |
| COCCOC(=O)OC1=C(c2c(C)cc(C)cc2C)C(=O)C(CC(C)=NOC)C1 (stereo not drawn) [1-147] |  | 5 (Herbicidal ratio of 90% or more (almost completely withered)) |  |  |  |  | 5 (Herbicidal ratio of 90% or more (almost completely withered)) | 4 (Herbicidal ratio of 70% or higher and lower than 90%) | 5 (Herbicidal ratio of 90% or more (almost completely withered)) | 4 (Herbicidal ratio of 70% or higher and lower than 90%) | 0 (Herbicidal ratio of 5% or lower (almost no effect)) | 5 (Herbicidal ratio of 90% or more (almost completely withered)) | 5 (Herbicidal ratio of 90% or more (almost completely withered)) | 3 (Herbicidal ratio of 40% or higher and lower than 70%) | 5 (Herbicidal ratio of 90% or more (almost completely withered)) | 5 (Herbicidal ratio of 90% or more (almost completely withered)) | 5 (Herbicidal ratio of 90% or more (almost completely withered)) | 3 (Herbicidal ratio of 40% or higher and lower than 70%) | 5 (Herbicidal ratio of 90% or more (almost completely withered)) | 5 (Herbicidal ratio of 90% or more (almost completely withered)) |  |
